pEC50: −log10 of the molar value.

The target in the first assay is T1, GLP-1R (Homo sapiens, UniProt P43220).
T1 construct: host or cells: GLP-1R CRE-bla CHO-K1 cells
T1 sequence (P43220 24-463): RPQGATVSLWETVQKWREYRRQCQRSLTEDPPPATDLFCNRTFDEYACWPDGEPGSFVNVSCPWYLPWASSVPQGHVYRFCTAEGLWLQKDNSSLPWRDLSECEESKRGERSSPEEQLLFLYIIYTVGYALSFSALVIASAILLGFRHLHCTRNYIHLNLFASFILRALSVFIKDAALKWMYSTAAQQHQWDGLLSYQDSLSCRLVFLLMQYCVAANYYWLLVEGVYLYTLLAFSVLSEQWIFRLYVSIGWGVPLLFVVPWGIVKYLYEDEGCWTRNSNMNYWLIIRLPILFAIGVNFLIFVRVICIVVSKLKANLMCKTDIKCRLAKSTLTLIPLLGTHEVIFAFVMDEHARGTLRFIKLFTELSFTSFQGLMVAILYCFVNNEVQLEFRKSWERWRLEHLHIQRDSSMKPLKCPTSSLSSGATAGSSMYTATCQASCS
T1 sequence (P01275 100-127 partner limits assumed): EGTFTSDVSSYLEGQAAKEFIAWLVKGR
The assay is described as follows: EC20 GLP-1(9-36) PAM cAMP assay: dose response of compound in the presence of fixed concentration of GLP-1(9-36). The settings on record: GLP-1R CRE-bla CHO-K1 cells, compound dose response with fixed concentration of GLP-1(9-36), read-out: EC20 GLP-1(9-36) PAM EC50. The assay is classed as cell-based. The method, then: EC20 GLP-1(9-36) PAM cAMP Assay: Dose Response of Compound in the Presence of Fixed Concentration of GLP-1 (9-36).
GLP-1R CRE-bla CHO-K1 cells cultured in growth medium (DMEM-High glucose, 10% dialyzed FBS, 0.1 mM NEAA, 25 mM Hepes, 100 U/mL penicillin/100 μg/mL streptomycin, 5 μg/mL Blasticidin, 600 μg/mL Hygromycin) were trypsinized and plated in suspension into 384 well white flat bottom plates at 5000 cells/well in 12 μL assay buffer (Hanks Balanced Salt solution, 10 mM hepes, 0.1% BSA, pH 7.4). A 5× compound dose response curve (12-point) was generated in assay buffer containing 1.5 mM IBMX, 4% DMSO. GLP-1(9-36) was diluted to 4.2 μM in assay buffer containing 1.5 mM IMBX and 4% DMSO. The 5× compound dose response was added (3 μL), followed by 0.5 μL of GLP-1(9-36) and cells were incubated for 30 min at 37° C. Direct detection of cAMP was carried out using DiscoveRx HitHunter cAMP kit according to manufacturer's instructions and luminescence was read using a SpectraMax M5 plate reader. Luminescence was converted to total cAMP using a cAMP standard curve and data was analyzed by non-linear regression to determine the EC50 and Emax.
GLP-1(7-36): […]-NH2 (SEQ ID NO: 2). GLP-1(9-36): […]-NH2 (SEQ ID NO: 3). GLP-1(7-36) was purchased from GenScript. GLP-1(9-36) was purchased from Biopeptide Co., Inc.
The EC20GLP-1(9-36) PAM Activity range is denoted as follows: + denotes activity <0.8 μM, ++ denotes activity between 0.8 and 2.5 μM, +++ denotes activity between 2.5 and 5 μM, and ++++ denotes activity 5 to 10 μM.
Broadly, the pEC50 is the EC50 on a negative log10 scale, so that one unit is a factor of ten. Consider `CCCc1ccc(N2CCN(c3cnc(-c4ccc(CC(NC(=O)c5ccc(C(C)(C)C)s5)C(=O)N5CC(C(=O)O)C5)cc4)nc3)C(=O)C2)cc1` (racemic) [Compound 1411], for which the pEC50 is 5.60 to 6.10. In the case of `CCCCCCCOc1ccc(-c2nnc(-c3ccc(CC(NC(=O)c4ccc(C(C)(C)C)cc4)C(=O)O)cc3F)s2)cc1` (stereo in doubt) [Compound 1552, (S)-2-(4-(tert-butyl)benzamido)-3-(3-fluoro-4-(5-(4-(heptyloxy)phenyl)-1,3,4-thiadiazol-2-yl)phenyl)propanoic acid], the pEC50 is 5.60 to 6.10.

The assay is the same for the next values; noted with them: dose response of compound in presence of fixed concentration of GLP-1(9-36), GLP-1R CRE-bla CHO-K1 cells, read-out: EC20 GLP-1(9-36) PAM EC50.
For the compound `CCCCCCCOc1ccc(-c2cnc(-c3ccc(C[C@H](NC(=O)c4ncc(C(C)C)s4)C(=O)O)cc3)nc2)cc1` [Compound 148], the pEC50 is 5.60 to 6.10. Same read-out and setting: the result for `CCCCCCCOc1ccc(-c2cnc(-c3ccc(C[C@@H](NC(=O)c4ccc(C(C)(C)C)cc4)C(=O)O)cc3)nc2)cc1` [Compound 191, (R)-2-(4-(tert-butyl)benzamido)-3-(4-(5-(4-(heptyloxy)phenyl)pyrimidin-2-yl)phenyl)propanoic acid] reads 5.60 to 6.10; that for `CCCCCCc1nc(-c2cnc(-c3ccc(C[C@H](NC(=O)c4ccc(C(C)(C)C)cc4)C(=O)O)cc3)nc2)no1` [Compound 248, (S)-2-(4-(tert-butyl)benzamido)-3-(4-(5-(5-hexyl-1,2,4-oxadiazol-3-yl)pyrimidin-2-yl)phenyl)propanoic acid], 5.30 to 5.60; that for `CCCCCCOc1ccc(-c2ccc(-c3ccc(C[C@H](NC(=O)c4ccc(C(C)(C)C)cc4)C(=O)O)cc3)cn2)cc1` [Compound 270], 5.30 to 5.60. Same read-out and setting: the result for `CCCCCCCOc1ccc(-c2ccc(-c3ccc(C[C@H](NC(=O)c4ccc(C(C)(C)C)cc4)C(=O)O)cc3)nn2)cc1` [Compound 273] reads 5.60 to 6.10; that for `CCCCCCCOc1ccc(-c2ncc(-c3ccc(C[C@H](NC(=O)c4ccc(C(C)(C)C)cc4)C(=O)O)cc3)nn2)cc1` [Compound 275], 5.60 to 6.10. Regarding `CCCCCCCOc1ccc(-c2cnc(-c3ccc(C(NC(=O)c4ccc(C(C)(C)C)s4)C(=O)O)cc3)nc2)cc1` (stereo not drawn) [Compound 289, 2-(5-(tert-butyl)thiophene-2-carboxamido)-2-(4-(5-(4-(heptyloxy)phenyl)pyrimidin-2-yl)phenyl)acetic acid], the pEC50 was 5.30 to 5.60. Still for that read-out and setting: in the case of `CCCCCCCOc1ccc(-c2cnc(-c3ccc(C[C@H](NC(=O)c4ccc(C(C)(C)C)s4)C(=O)N4CCC[C@H]4C(=O)O)cc3)nc2)cc1` [Compound 328, (S)-1-((S)-2-(5-(tert-butyl)thiophene-2-carboxamido)-3-(4-(5-(4-(heptyloxy)-phenyl)pyrimidin-2-yl)phenyl)propanoyl)pyrrolidine-2-carboxylic acid] it was greater than 6.10; in that of `CCCCCCCOc1ccc(-c2cnc(-c3ccc(C[C@@H](NC(=O)c4ccc(C(C)(C)C)cc4)C(=O)NCC(=O)O)cc3)nc2)cc1` [Compound 380], 5.60 to 6.10. Consider `CC(C)(C)c1ccc(-c2cnc(-c3ccc(C[C@H](NC(=O)c4ccc(C(C)(C)C)s4)C(=O)N[C@H]4CCC[C@H]4C(=O)O)cc3)nc2)cc1` [Compound 382], for which the pEC50 is 5.60 to 6.10. With `CCCCCCCOc1ccc(-c2cnc(-c3ccc(C[C@H](NC(=O)c4ccc(C(C)(C)C)s4)C(=O)NC)cc3)nc2)cc1` [Compound 383], the pEC50 was 5.30 to 5.60. The same measure, in the same setting: the result for `CCCCCCCOc1ccc(-c2cnc(-c3ccc(C[C@H](NC(=O)c4ccc(C(C)(C)C)s4)C(=O)NCCN)cc3)nc2)cc1` [Compound 384] reads 5.00 to 5.30; that for `CCCCCCCOc1ccc(-c2cnc(-c3ccc(C[C@H](NC(=O)c4ccc(C(C)(C)C)s4)C(=O)NCCN(C)C)cc3)nc2)cc1` [Compound 385], 5.00 to 5.30; that for `CCCCCCCOc1ccc(-c2cnc(-c3ccc(C[C@H](NC(=O)c4ccc(C(C)(C)C)s4)C(=O)NCCOC)cc3)nc2)cc1` [Compound 386], 5.60 to 6.10.

Turning to `CCCCCCCOc1ccc(-c2cnc(-c3ccc(C[C@H](NC(=O)c4ccc(C(C)(C)C)s4)C(=O)NC(C)CO)cc3)nc2)cc1` (stereo partly drawn) [Compound 387], the pEC50 was 5.00 to 5.30. On the same count and under the same terms, the result for `CCCCCCCOc1ccc(-c2cnc(-c3ccc(C[C@H](NC(=O)c4ccc(C(C)(C)C)s4)C(=O)NCC(C)O)cc3)nc2)cc1` (stereo partly drawn) [Compound 388] reads 5.30 to 5.60; that for `CCCCCCCOc1ccc(-c2cnc(-c3ccc(C[C@H](NC(=O)c4ccc(C(C)(C)C)s4)C(=O)NCCNC(C)=O)cc3)nc2)cc1` [Compound 389], 5.60 to 6.10; that for `CCCCCCCOc1ccc(-c2cnc(-c3ccc(C[C@H](NC(=O)c4ccc(C(C)(C)C)s4)C(=O)NCC4CCNC4)cc3)nc2)cc1` (stereo partly drawn) [Compound 390], 5.60 to 6.10.

In the case of `CC(C)(C)c1ccc(-c2cnc(-c3ccc(CC(NC(=O)c4ccc(C(C)(C)C)s4)C(=O)O)cc3F)nc2)cc1` (stereo not drawn) [Compound 391], the pEC50 is 5.30 to 5.60.

Take `CCCCCCCOc1ccc(-c2cnc(-c3ccc(C[C@H](NC(=O)c4ccc(C(C)(C)C)s4)C(=O)N[C@H](CN)C(=O)O)cc3)nc2)cc1` [Compound 392]: the pEC50 is 5.30 to 5.60.

For the compound `CCCCCCCOc1ccc(-c2cnc(-c3ccc(C[C@H](NC(=O)c4ccc(C(C)(C)C)s4)C(=O)N[C@@H](CCCN)C(=O)O)cc3)nc2)cc1` [Compound 393], the pEC50 is 5.60 to 6.10. Same read-out and setting: in the case of `CCCCCCCOc1ccc(-c2cnc(-c3ccc(C[C@H](NC(=O)c4ccc(C(C)(C)C)s4)C(=O)N[C@@H](CN)C(=O)O)cc3)nc2)cc1` [Compound 394] it was 5.30 to 5.60; in that of `CCCCCCCOc1ccc(-c2cnc(-c3ccc(C[C@H](NC(=O)c4ccc(C(C)(C)C)s4)C(=O)NC4(C(=O)O)CCCC4)cc3)nc2)cc1` [Compound 395], 5.60 to 6.10.

On to `CCCCCCCOc1ccc(-c2cnc(-c3ccc(C[C@H](NC(=O)c4ccc(C(C)(C)C)s4)C(=O)NC(C(=O)O)C4CCOCC4)cc3)nc2)cc1` (stereo partly drawn) [Compound 396], for which the pEC50 is greater than 6.10.

As for `CCCCCCc1nnc(-c2cnc(-c3ccc(C[C@H](NC(=O)c4ccc(C(C)(C)C)cc4)C(=O)O)cc3)nc2)s1` [Compound 397, (S)-2-(4-(tert-butyl)benzamido)-3-(4-(5-(5-hexyl-1,3,4-thiadiazol-2-yl)pyrimidin-2-yl)phenyl)propanoic acid], the pEC50 was 5.30 to 5.60. `CCCCCCCOc1ccc(-c2cnc(-c3ccc(C[C@H](NC(=O)c4ccc(C(C)(C)C)cc4)C(=O)N[C@H](C)C(=O)O)cc3)nc2)cc1` [Compound 398, (R)-2-((S)-2-(4-(tert-butyl)benzamido)-3-(4-(5-(4-(heptyloxy)phenyl)pyrimidin-2-yl)phenyl)propanamido)propanoic acid]: the pEC50 was greater than 6.10.

As for `CCCCCCCOc1ccc(-c2cnc(-c3ccc(C[C@H](NC(=O)c4ccc(C(C)(C)C)cc4)C(=O)N[C@@H](CCC(N)=O)C(=O)O)cc3)nc2)cc1` [Compound 399], the pEC50 is greater than 6.10.

`CCCCCCCOc1ccc(-c2cnc(-c3ccc(C[C@H](NC(=O)c4ccc(C(C)(C)C)cc4)C(=O)N[C@@H](C)C(=O)O)cc3)nc2)cc1` [Compound 400]: the pEC50 is greater than 6.10.

As to `CCCCCCCOc1ccc(-c2cnc(-c3ccc(C[C@H](NC(=O)c4ccc(C(C)(C)C)s4)C(=O)N[C@@H](CC)C(=O)O)cc3)nc2)cc1` [Compound 401], the pEC50 is greater than 6.10. As to `CCCCCCCOc1ccc(-c2cnc(-c3ccc(C[C@H](NC(=O)c4ccc(C(C)(C)C)s4)C(=O)N[C@H](CC)C(=O)O)cc3)nc2)cc1` [Compound 402], the pEC50 is greater than 6.10. As to `CCCCCCCOc1ccc(-c2cnc(-c3ccc(C[C@H](NC(=O)c4ccc(C(C)(C)C)s4)C(=O)N[C@@H](CCC)C(=O)O)cc3)nc2)cc1` [Compound 403], the pEC50 was 5.60 to 6.10. Still for that read-out and setting: the result for `CCCCCCCOc1ccc(-c2cnc(-c3ccc(C[C@H](NC(=O)c4ccc(C(C)(C)C)s4)C(=O)N[C@@H](C(=O)O)C4CC4)cc3)nc2)cc1` [Compound 404] reads greater than 6.10; that for `CCCCCCCOc1ccc(-c2cnc(-c3ccc(C[C@H](NC(=O)c4ccc(C(C)(C)C)s4)C(=O)N[C@H](C(=O)O)C4CC4)cc3)nc2)cc1` [Compound 405], greater than 6.10; that for `CCCCCCCOc1ccc(-c2cnc(-c3ccc(C[C@H](NC(=O)c4ccc(C(C)(C)C)s4)C(=O)NC(C)(C)C(=O)O)cc3)nc2)cc1` [Compound 406], 5.60 to 6.10. For the compound `CCCCCCCOc1ccc(-c2cnc(-c3ccc(CC(NC(=O)c4ccc(C(C)(C)C)s4)C(=O)N[C@H](C(=O)O)C(C)C)cc3)nc2)cc1` (stereo partly drawn) [Compound 407], the pEC50 is greater than 6.10.

With `CCCCCCCOc1ccc(-c2cnc(-c3ccc(CC(NC(=O)c4ccc(C(C)(C)C)s4)C(=O)N[C@@H](CC(C)C)C(=O)O)cc3)nc2)cc1` (stereo partly drawn) [Compound 408], the pEC50 was 5.60 to 6.10. On to `CCCCCCCOc1ccc(-c2cnc(-c3ccc(C[C@H](NC(=O)c4ccc(C(C)(C)C)cc4)C(=O)NC(C)(C)C(=O)O)cc3)nc2)cc1` [Compound 409], for which the pEC50 is 5.60 to 6.10.

The values are drawn from patent publication US10034886B2, “GLP-1 receptor modulators” (Celgene International II SÀRL, priority 2014, dated 2018).
